This is an account of results in patent publication US9145405B2, “Oxadiazole compound and preparation method thereof, pharmaceutical composition and use thereof” (SHANGHAI JIAO TONG UNIVERSITY, priority 2011, dated 2015).

Values after ≈ are worked out from the molar mass of the structure shown. Read-outs that look alike come from different tables or passages of the source.

Data set [1] concerns Vero cells. Put plainly: Toxicity (half toxic concentration) in the anti-Cox_B3 test on Vero cells. In kind it is cell-based.
In data set [2] the test system is Cox_B3 virus. Kind of data set: Anti-Cox_B3 test: inhibition of cytopathic effect (CPE) in infected Vero cells, Reed-Muench. In kind it is cell-based. The settings on record: for IC50: read-out: IC50 (half-inhibitory concentration for viruses). An excerpt: The present examples verifies experimental results of anti-Cox_B3 of the compounds 1-137of the present invention, Pleconaril, 3-[3,5-dimethyl-4-[5-(3-methy-1,2-oxazolyl)propoxy]phenyl]-5-(trifluonomethyl) -1,2,4-oxadiazole is used as positive control.
On the technique in general: Protection from cytopathic effect is a common read-out in antiviral testing.

The mark [3] stands for this setting: Cox_B3 virus in Vero cells, CPE, Reed-Muench method.

Regarding `Cc1cc(-c2noc(C(F)(F)F)n2)cc(C)c1OCCCOc1ccc([N+](=O)[O-])cn1` [Compound 134, 2-[3-[2,6-dimethyl-4-[5-(trifluoromethyl)-1,2,4-oxadiazole-3-yl]phenoxyl]propoxy]-5-nitropyridine], the “TC50 (half of the toxic concentration)” value in data set [1] (Vero cells, Cox_B3) was 40.25 µg/mL. The IC50 in data set [2] (setting [3]) came out at 0.045 µg/mL (≈ 0.103 µM). In the same order, the values of `Cc1cc(-c2noc(C(F)(F)F)n2)cc(C)c1OCCSc1nccc(C(F)(F)F)n1` [Compound 34, 2-[2-[2,6-dimethyl-4-[5-(trifluoromethyl)-1,2,4-oxadiazole-3-yl]phenoxyl]ethylthio]-4-(trifluoromethyl) pyrimidine] are 33.28 µg/mL and 0.11 µg/mL (≈ 0.237 µM). On to `COC(=O)c1cc(OCCCOc2c(C)cc(-c3noc(C(F)(F)F)n3)cc2C)no1` [Compound 7, 3-[3-[2,6-dimethyl-4-[5-(trifluoromethyl)-1,2,4-oxadiazole-3-yl]phenoxyl]propoxy]-isoxazole-5-carboxylate], for which the “TC50 (half of the toxic concentration)” value in data set [1] is 36.48 µg/mL. Besides, the “IC50 (half-inhibitory concentration for viruses)” value in data set [2] (setting [3]) came to 0.24 µg/mL. On to `Cc1cc(OCCCOc2c(C)cc(-c3noc(C(F)(F)F)n3)cc2C)on1` [Compound 8, 3-[3,5-dimethyl-4-[3-(3-methylisoxazole-5-oxy)propoxy]phenyl]-5-(trifluoromethyl)-1,2,4-oxadiazole], for which the “TC50 (half of the toxic concentration)” value in data set [1] (Vero cells, Cox_B3) was determined as 52.38 µg/mL. Moreover, the IC50 in data set [2] (setting [3]) was 0.021 µg/mL (≈ 0.0528 µM). As for “6-[2,6-dimethyl-4-[(5-(trifluoromethyl)-1,2,4-oxadiazole-3-yl)phenoxyl]ethoxyl]-3-cyanopyridine [Compound 50]”, in data set [1], the “TC50 (half of the toxic concentration)” value is 36.88 µg/mL. Also, the “IC50 (half-inhibitory concentration for viruses)” value in data set [2] (setting [3]) was determined as 0.087 µg/mL. “6-[2,6-dimethyl-4-[(5-(trifluoromethyl)-1,2,4-oxadiazole-3-yl)phenoxyl]ethoxyl]-5-trifluoromethylpyridine [Compound 106]”: the “TC50 (half of the toxic concentration)” value in data set [1] stood at 36.36 µg/mL. The “IC50 (half-inhibitory concentration for viruses)” value in data set [2] (setting [3]) is 0.09 µg/mL. Consider `Cc1cc(OCCOc2c(C)cc(-c3noc(C(F)(F)F)n3)cc2C)[nH]n1` [Compound 15, 3-[3,5-dimethyl-4-[2-(3-methyl-1H-pyrazole-5-oxy)ethoxyl]phenyl]-5-(trifluoromethyl)-1,2,4-oxadiazole], for which, in data set [1] (Vero cells, Cox_B3), the “TC50 (half of the toxic concentration)” value amounted to 42.38 µg/mL. Moreover, the IC50 in data set [2] (setting [3]) was determined as 0.12 µg/mL (≈ 0.314 µM). Regarding `Cc1csc(OCCOc2c(C)cc(-c3noc(C(F)(F)F)n3)cc2C)n1` [Compound 13, 3-[3,5-dimethyl-4-[2-(4-methylthiazole-2-oxy)ethoxyl]phenyl]-5-(trifluoromethyl)-1,2,4-oxadiazole], the “TC50 (half of the toxic concentration)” value in data set [1] (Vero cells, Cox_B3) is 38.68 µg/mL. For the same molecule, in data set [2] (setting [3]), the IC50 was found to be 0.15 µg/mL (≈ 0.376 µM). `Cc1cc(-c2noc(C(F)(F)F)n2)cc(C)c1OCCCOc1ccc(-c2noc(C(F)(F)F)n2)nn1` [Compound 137, 3-[5-(trifluoromethyl)-1,2,4-oxadiazole-3-yl]-6-[3-[2,6-dimethyl-4-[5-(trifluoromethyl)-1,2,4-oxadiazole-3-yl]phenoxyl]propoxy]pyridazine]: in data set [1] (Vero cells, Cox_B3), the “TC50 (half of the toxic concentration)” value is 41.65 µg/mL. For the same molecule, the IC50 in data set [2] (setting [3]) was 0.039 µg/mL (≈ 0.0735 µM). As for “4-[2,6-dimethyl-4-(5-(trifluoromethyl)-1,2,4-oxadiazole-3-yl) phenoxyl]ethoxyl]-2-hydroxy-5-fluoropyrimidine [Compound 107]”, in data set [1], the “TC50 (half of the toxic concentration)” value came to 33.82 µg/mL. The “IC50 (half-inhibitory concentration for viruses)” value in data set [2] (setting [3]) was 0.085 µg/mL. On to `Cc1cc(-c2noc(C(F)(F)F)n2)cc(C)c1OCCOc1ccc(-c2noc(C(F)(F)F)n2)cc1` [Compound 112, 3-[3,5-dimethyl-4-[2-[4-[5-(trifluoromethyl)-1,2,4-oxadiazole-3-yl]phenoxyl]ethoxyl]phenyl]-5-(trifluoromethyl)-1,2,4-oxadiazole], for which the “TC50 (half of the toxic concentration)” value in data set [1] (Vero cells, Cox_B3) amounted to 34.98 µg/mL. The IC50 in data set [2] (setting [3]) is 0.032 µg/mL (≈ 0.0622 µM). For the molecule `Cc1nnc(OCCOc2c(C)cc(-c3noc(C(F)(F)F)n3)cc2C)o1` [Compound 28, 3-[3,5-dimethyl-4-[2-[5-methyl-1,3,4-oxadiazole-2-oxy]ethoxyl]phenyl]-5-(trifluoromethyl)-1,2,4-oxadiazole], in data set [1] (Vero cells, Cox_B3), the “TC50 (half of the toxic concentration)” value came out at 32.36 µg/mL. In addition, the IC50 in data set [2] (setting [3]) is 0.11 µg/mL (≈ 0.286 µM). Take `Cc1cc(-c2noc(C(F)(F)F)n2)cc(C)c1OCCCOc1ncc(C#N)cn1` [Compound 132, 2-[3-[2,6-dimethyl-4-[5-(trifluoromethyl)-1,2,4-oxadiazole-3-yl]phenoxyl]propoxy]-5-cyano-pyrimidine]: in data set [1] (Vero cells, Cox_B3), the “TC50 (half of the toxic concentration)” value was determined as 39.23 µg/mL. Further, the IC50 in data set [2] (setting [3]) came out at 0.04 µg/mL (≈ 0.0954 µM). For the molecule “3-[2,6-dimethyl-4-[(5-(trifluoromethyl)-1,2,4-oxadiazole-3-yl)phenoxyl]ethoxyl]-6-methylpyridazine [Compound 56]”, in data set [1], the “TC50 (half of the toxic concentration)” value is 22.22 µg/mL. For the same molecule, in data set [2] (setting [3]), the “IC50 (half-inhibitory concentration for viruses)” value came to 0.20 µg/mL. As to `Cc1cc(-c2noc(C(F)(F)F)n2)cc(C)c1OCCCOc1cnc(C#N)cn1` [Compound 131, 2-cyano-5-[3-[2,6-dimethyl-4-[5-(trifluoromethyl)-1,2,4-oxadiazole-3-yl]phenoxyl]propoxy]pyrazine], the “TC50 (half of the toxic concentration)” value in data set [1] (Vero cells, Cox_B3) is 36.87 µg/mL. Besides, the IC50 in data set [2] (Vero) was 0.035 µg/mL (≈ 0.0835 µM). With “5-[2,6-dimethyl-4-[(5-(trifluoromethyl)-1,2,4-oxadiazole-3-yl)phenoxyl]ethoxyl]pyridine-2-oxy-ethylketoxime [Compound 45]”, the “TC50 (half of the toxic concentration)” value in data set [1] (Vero cells, Cox_B3) amounted to 32.28 µg/mL. The “IC50 (half-inhibitory concentration for viruses)” value in data set [2] (setting [3]) came out at 0.10 µg/mL. Consider `Cc1cc(-c2noc(C(F)(F)F)n2)cc(C)c1OCCCOc1ccc(C#N)nn1` [Compound 133, 3-cyano-6-[3-[2,6-dimethyl-4-[5-(trifluoromethyl)-1,2,4-oxadiazole-3-yl]phenoxyl]propoxy]pyridazine], for which the “TC50 (half of the toxic concentration)” value in data set [1] (Vero cells, Cox_B3) came to 38.78 µg/mL. Also, the IC50 in data set [2] (setting [3]) was determined as 0.041 µg/mL (≈ 0.0978 µM). With “4-[2,6-dimethyl-4-[(5-(trifluoromethyl)-1,2,4-oxadiazole-3-yl)phenoxyl]ethoxyl]-2-methoxyl-5-fluoropyrimidine [Compound 108]”, in data set [1], the “TC50 (half of the toxic concentration)” value stood at 47.58 µg/mL. Also, in data set [2] (setting [3]), the “IC50 (half-inhibitory concentration for viruses)” value was found to be 0.078 µg/mL.

As for “6-[2,6-dimethyl-4-[(5-(trifluoromethyl)-1,2,4-oxadiazole-3-yl)phenoxyl]ethoxyl]-5-fluoro-2-hydroxy-3-cyanopyridine [Compound 102]”, the “TC50 (half of the toxic concentration)” value in data set [1] is 36.28 µg/mL. Besides, the “IC50 (half-inhibitory concentration for viruses)” value in data set [2] (setting [3]) worked out at 0.10 µg/mL.

In the case of `Cc1cc(-c2noc(C(F)(F)F)n2)cc(C)c1OCCCOc1cc(C(F)(F)F)no1` [Compound 9, 3-[3,5-dimethyl-4-[3-(3-trifluoromethylisoxazole-5-oxy)propoxy]phenyl]-5-(trifluoromethyl)-1,2,4-oxadiazole], in data set [2] (setting [3]), the IC50 worked out at 0.031 µg/mL (≈ 0.0687 µM). As for “3-[3,5-dimethyl-4-[2-(5-methyl-1H-imidazole-2-thio)ethoxyl]phenyl]-5-(trifluoromethyl)-1,2,4-oxadiazole [Compound 18]”, the “IC50 (half-inhibitory concentration for viruses)” value in data set [2] (setting [3]) is 0.13 µg/mL. `Cc1cc(Cl)c(OCCCOc2c(C)cc(-c3noc(C(F)(F)F)n3)cc2C)c(Cl)c1` [Compound 130, 3-[4-[3-[2,6-dichloro-4-methylphenoxyl]propoxy]-3,5-dimethylphenyl]-5-(trifluoromethyl)-1,2,4-oxadiazole]: in data set [2] (Vero), the IC50 worked out at 0.031 µg/mL (≈ 0.0652 µM).
